Source: article PMC2290058 (The Journal of Cell Biology, 1992)

What was measured:
alpha4 integrin subunit = test: Flow cytometry, cell surface expression of alpha4 integrin after treatment; assay type: cell-based, human; conditions: 1 mM xyloside 24 h (Fig. 2) or chondroitinase ABC (not shown); mAb P4C2
beta1 integrin subunit = test: Flow cytometry, cell surface expression of beta1 integrin after treatment; assay type: cell-based, human; conditions: 1 mM xyloside 24 h (Fig. 2) or chondroitinase ABC (not shown); mAb P4C10
[1] = system: A375SM human melanoma cells; test: Cytotoxicity check of treatments; assay type: cell-based; conditions: trypan blue exclusion; 3H-TdR or [35S]methionine incorporation; not shown
[2] = system: A375SM human melanoma cells; test: Promotion of melanoma cell adhesion to coated substrata; assay type: cell-based; conditions: for amount of coated ligand that promoted half maximal cell adhesion: peptide/OVA conjugate on Immulon 1 polystyrene wells, 30-min assay
anti-FN-C/H-III IgG = test: ELISA of purified anti-FN-C/H-III IgG; assay type: binding, rabbit; conditions: coated substrata; not shown
[3] = system: A375SM human melanoma cells; assay type: cell-based; conditions: for effect of ctDX (alphaDX) on cell adhesion to peptide: 1 mM inactive analogue, FN-C/H-III Fig. 5A, others not shown
[4] = system: A375SM human melanoma cells; assay type: cell-based
[5] = system: purified melanoma cell CSPG; test: Binding of purified melanoma CSPG or CS to peptide/OVA affinity columns; set-up: species or system human
[6] = earlier work, ref McCarthy et al., 1988a, 1990, Haugen et al.; cited from earlier work
[7] = target: CSPG binding to 33-kD fragment; set-up: species or system human; conditions: inhibitor 500 ug/ml, 2 h, 4°C; CSPG about 7,000 dpm; buffer control <50
[8] = target: tryptic/catheptic 33-kD carboxyl-terminal heparin binding fragment of human plasma fibronectin A-chains (human); test: ligand affinity column chromatography, competition
[9] = wells coated with 100 nmole FN-C/H-III/OVA (Fig. 5A)

O=[N+]([O-])c1ccc(O[C@@H]2OC[C@@H](O)[C@H](O)[C@H]2O)cc1 [/3DX, p-nitrophenyl-/3-o-xylopyranoside]
cell surface alpha4 integrin level compared to untreated controls (alpha4 integrin subunit): identical | cell surface beta1 integrin level compared to untreated controls (beta1 integrin subunit): identical | cytotoxic effect as cause of the inhibition of cell adhesion [1]: not due to cytotoxic

O=[N+]([O-])c1ccc(O[C@H]2OC[C@@H](O)[C@H](O)[C@H]2O)cc1 [ctDX, p-Nitrophenyl-ct-o-xylopyranoside]
cytotoxic effect as cause of the inhibition of cell adhesion [1]: not due to cytotoxic

KNNQKSEPLIGRKKT [FN-C/H-II]
amount of coated ligand that promoted half maximal cell adhesion [2]: 20 nmol | recognition by anti-FN-C/H-III IgG in ELISA (anti-FN-C/H-III IgG): did not recognize | effect of ctDX (alphaDX) on cell adhesion to peptide [3]: resistant | inhibition of cell adhesion by chondroitinase ABC or /3DX ([3]; approximate, stated in text for chondroitinase ABC or /3DX): ~ 50% | effect of anti-alpha5 integrin mAb P1D6 on cell adhesion to peptide ([4]; P1D6 (Fig. 8), mean of triplicate): did not inhibit | inhibition of cell adhesion to peptide by anti-alpha4 integrin mAb P4C2 ([4]; P4C2, not shown): 50-60% | CSPG binding affinity compared with FN-C/H-III ([5]; affinity column, Discussion): lower affinity than that observed for FN-C/H-III | binding of purified CSPG to peptide affinity column ([5]; peptide/OVA column, applied in 0.05 M NaCl (Fig. 7)): bound purified CSPG | heparin binding [6]: bind heparin

OVA/OVA: ovalbumin coupled to ovalbumin, control conjugate
CSPG in flow through of 33-kD fragment affinity column [7]: 123 dpm

YRVRVTPKEKTGPMKE [FN-C/H-III]
promotion of melanoma cell adhesion ([2]; FN-C/H-III/OVA coated wells, 30-min assay (Fig. 4A)): promoted melanoma cell adhesion | amount of coated ligand that promoted half maximal cell adhesion [2]: 100 nmol | recognition by anti-FN-C/H-III IgG in ELISA (anti-FN-C/H-III IgG): specifically recognized | effect of /3DX on cell adhesion to FN-C/H-III ([3]; 1 mM /3DX, wells coated with 100 nmole FN-C/H-III/OVA (Fig. 5A)): inhibited | effect of ctDX (alphaDX) on cell adhesion to peptide [3]: not by heparitinase or t~DX | effect of chondroitinase ABC on cell adhesion to FN-C/H-III [3, 9]: inhibited | effect of heparitinase on cell adhesion to FN-C/H-III [3, 9]: not by heparitinase | effect of anti-alpha4 integrin mAb P4C2 on cell adhesion to peptide ([4]; P4C2, FN-C/H-III coated substrata): did not inhibit cell adhesion

cell surface chondroitin sulfate proteoglycan (CSPG) purified from A375SM human melanoma cells
radioactivity bound to the 33-kD fragment column, buffer alone [8]: 6980 dpm

chondroitinase ABC
cell surface alpha4 integrin level compared to untreated controls (alpha4 integrin subunit): identical | cell surface beta1 integrin level compared to untreated controls (beta1 integrin subunit): identical | cytotoxic effect as cause of the inhibition of cell adhesion [1]: not due to cytotoxic
